Patent US6926892B2, “Protecting plants from oomycete pathogens by treatment with compositions containing serratamolide and oocydin a from Serratia marcescens” (HMV Corporation, priority 2000, dated 2005)
≈ marks a conversion by molar mass, not a printed value.

What was measured:
Oomycetes [1] = experiment: Minimum inhibitory concentration tests against a number of plant fungal pathogens (summary); assay type: cell-based; details: e.g., P. cactorum, P. capsici, P. ultimum
Experimental: (§1) 900 μl of potato dextrose broth was placed into the wells of a sterile 24-well culture plate. Serratamolide (in methanol) was added to the wells in concentrations of 0, 3.3, 10, 33 and 100 μg/ml. 20 μl methanol was added to one row to serve as a control. Fungal cultures to be tested were grown on PDA plates for three to five days. Pieces of agar containing the cultures were transferred to sterile microfuge tubes containing 0.5 ml sterile distilled water and broken up using a sterile Teflon pestle. 100 μl of PD broth containing the mycelia was added to each well, and growth inhibition was monitored over 3 days. At the end of 3 days cultures were transferred to a ground glass homogenizer, gently broken up, diluted in distilled water and the optical density measured using a Spectronic 20 spectrophotometer at 660 nm. The minimum inhibitory concentration was determined as the concentration of serratamolide compound needed to effect a 10% reduction in growth.

Botrytis cinera = experiment: Minimum inhibitory concentration in potato dextrose broth, 24-well plate; assay type: cell-based; details: 3 days, MIC = concentration needed to effect a 10% reduction in growth (OD 660 nm)
Experimental: as §1

Phytophthora capsici = experiment: as above; assay type: cell-based; details: 3 days, MIC = concentration needed to effect a 10% reduction in growth (OD 660 nm)
Experimental: as §1

Phytophthora cactorum = experiment: as above; assay type: cell-based; details: 3 days, MIC = concentration needed to effect a 10% reduction in growth (OD 660 nm)
Experimental: as §1

Rhizoctonia solani = experiment: as above; assay type: cell-based; details: 3 days, MIC = concentration needed to effect a 10% reduction in growth (OD 660 nm)
Experimental: as §1

Pythium ultimum = experiment: as above; assay type: cell-based; details: 3 days, MIC = concentration needed to effect a 10% reduction in growth (OD 660 nm)
Experimental: as §1

Phytophtora parasitica = experiment: as above; assay type: cell-based; details: 3 days, MIC = concentration needed to effect a 10% reduction in growth (OD 660 nm)
Experimental: as §1

Oomycetes [2] = details: from Strobel et al. 1999 / U.S. Ser. No. 09/858,871; cited from earlier work

Row | SMILES | Spectrum of activity among plant pathogens tested (Oomycetes [1]) | Minimum inhibitory concentration (Botrytis cinera) [µg/mL] | Minimum inhibitory concentration (Phytophthora capsici) [µg/mL] | Minimum inhibitory concentration (Phytophthora cactorum) [µg/mL] | Minimum inhibitory concentration (Rhizoctonia solani) [µg/mL] | Minimum inhibitory concentration (Pythium ultimum) [µg/mL] | Minimum inhibitory concentration (Phytophtora parasitica) [µg/mL] | Activity against Oomycetes, MICs relative to metalaxyl (Oomycetes [2])
1 | CCCCCCC[C@@H]1CC(=O)N[C@@H](CO)C(=O)O[C@H](CCCCCCC)CC(=O)N[C@@H](CO)C(=O)O1 [serratamolide] | active against Oomycetes only | >100 | 10 (≈ 19.4 µM) | 60 (≈ 117 µM) | >100 | 6 (≈ 11.7 µM) | 6 (≈ 11.7 µM) | 
2 | CC(=O)OC1CC(=O)O[C@H]2C[C@H](CC/C(Cl)=C\C/C=C\1C)O[C@H]2[C@@H](O)/C=C(\C)CC(=O)O (some centres unmarked) [oocydin A] |  |  |  |  |  |  |  | selective lethal activity against Oomycetes at MICs lower or similar to those noted for metalaxyl
